Reference: patent US10111854B2, “Synthesis and use of amine-containing flavonoids as potent anti-leishmanial agents” (The Hong Kong Polytechnic University, priority 2014, dated 2018)

What was measured:
[1] = tested on: L. amazonensis LV78 promastigotes; experiment: Anti-promastigote activity (MTS assay), L. amazonensis LV78; assay type: cell-based; details: Leishmania amazonensis, 72 hours
Procedure: (§1) Promastigotes of visceral L. donovani Ld39 and LdHU3, and cutaneous L. amazonensis LV78, L. braziliensis UA847 and L. major FV1 were employed in the study. All strains were cultured in Schneider's Drosophila Medium (Invitrogen), pH 6.9 supplemented with 10% (v/v) heat inactivated fetal bovine serum (Hyclone) with 4 mM glutamine (Sigma) and 25 μg/mL gentamicin solution (Invitrogen) at 27° C. for 4 days. RAW264.7 cells were cultured in supplemented DMEM media with 10% heat inactivated FBS and 100 U/mL penicillin and 100 μg/mL of streptomycin. They were maintained at 37° C. in a humidified atmosphere with 5% CO2. The cells were split constantly after a confluent monolayer has been formed. The cells were harvested by a cell scraper.
(§2) Anti-promastigote activity was determined according to previous procedures (1) by Cell Titer 96® Aqueous Assay (Promega) that employed a tetrazolium compound. Promastigotes were seeded into 96-well flat bottom microtiter plate at 1×10^5 cells per well in a final volume of 100 μL medium and incubated with a series of concentrations of synthetic FM. Parasites were incubated at 27° C. for 72 hours. After 72 hours of incubation, 10 μL of MTS:PMS mixture [MTS:2-(4,5-Dimethylthiazol-2-yl-)-5-[3-(carboxymethoxy)phenyl]-2-(4-sulfophenyl)-2H-tetrazolium); PMS: phenazine methosulfate both purchased from Sigma] was added into each well of microtiter plate. The plate was then incubated at 27° C. for 4 hours for color development. After 4 hours of incubation, the OD values were determined at 490 nm using automatic microtiter plate reader (Bio-Rad).
(§3) IC50 values of known antileishmanials and the amine-containing flavonoid monomers of the present invention to promastigotes (L. amazonensis LV78, L major FV1, L. donovani HU3, L. donovani 39), macrophages (Raw 264.7 and PEM) and mouse fibroblast (L929) were determined. The anti-promastigotes activities and cytotoxicity of the amine-containing flavonoid monomers of the invention are shown in Table 1.

[2] = tested on: L. major FV1 promastigotes; experiment: Anti-promastigote activity (MTS assay), L. major FV1; assay type: cell-based; details: Leishmania major, 72 hours
Procedure: as §1, §2, §3

[3] = tested on: L. donovani HU3 promastigotes; experiment: Anti-promastigote activity (MTS assay), L. donovani HU3; assay type: cell-based; details: Leishmania donovani, 72 hours
Procedure: as §1, §2, §3

[4] = tested on: L. donovani Ld39 promastigotes; experiment: Anti-promastigote activity (MTS assay), L. donovani Ld39; assay type: cell-based; details: Leishmania donovani, 72 hours
Procedure: as §1, §2, §3

[5] = Cytotoxicity, L929 fibroblasts; assay type: cell-based, mouse; details: mouse
Procedure: as §3

[6] = tested on: L. amazonensis LV78 amastigotes; experiment: Anti-amastigote activity in infected PEM, L. amazonensis LV78; assay type: cell-based; details: Leishmania amazonensis, 72 h; infected PEM, 3 days, Giemsa
Procedure: (§4) Mouse peritoneal elicited macrophages (PEM) were obtained as previously described (2). A round cover slip (12 mm in diameter) was placed into each well of 24-well culture plate. Mouse PEM were resuspended in supplemented DMEM media containing 10% heat inactivated FBS (v/v), 100 U/mL penicillin and 100 μg/mL streptomycin and seeded into each well at a cell density of 1×10^5 cells per 500 μL. Macrophages were allowed to attach overnight. Non-adherent cells were removed by gentle washing with un-supplemented DMEM media twice. Adherent macrophages were infected with late-log promastigotes at a parasite-to-macrophage ratio of 20:1 overnight at 37° C. with 5% CO2. Non-internalized promastigotes were removed by washing twice with un-supplemented DMEM media. Infected macrophages were further incubated in 500 μL of supplemented DMEM media in the presence or absence of FM for 72 hours at 37° C. After incubation, cover slips were stained with Giemsa and the percentage of macrophages infected and number of amastigotes per 100 macrophages was enumerated.
(§5) PEM cells were infected with late-log promastigotes (L. amazonensis LV78, L. braziliensis UA847, L. donovani HU3, L. donovani 39) for 24 hr at 37° C. Infected macrophages were then treated with various antileishmanials and incubated for 3 days at 37° C. After 3 days, the cover slips were stained with Giemsa. The number of amastigotes per 100 macrophages were determined and used to calculate IC50 values.

[7] = tested on: L. donovani Ld39 amastigotes (SSG-resistant); experiment: Anti-amastigote activity in infected PEM, L. donovani Ld39; assay type: cell-based; details: for IC50: Leishmania donovani, 72 h, infected PEM, 3 days, Giemsa, SSG-resistant; for Selective index (a)/(c): IC50 RAW264.7 over IC50 L. donovani Ld39 amastigotes
Procedure: as §4, §5

[8] = Cytotoxicity, peritoneal elicited macrophages (PEM); assay type: cell-based, mouse; details: mouse, Cytotoxicity IC50, PEM
Procedure: as §4, §3

[9] = tested on: L. donovani HU3 amastigotes; experiment: Anti-amastigote activity in infected PEM, L. donovani HU3; assay type: cell-based; details: Leishmania donovani, 72 h; infected PEM, 3 days, Giemsa; SSG-sensitive
Procedure: as §4, §5

RAW264.7 cells = experiment: Reactive oxygen species (ROS) level, DCFDA, RAW264.7; assay type: cell-based, murine
Procedure: (§6) 50,000 RAW264.7 were seeded in each well of black 96-well plates overnight. Next day, RAW264.7 cells were pre-loaded with 10 μM dichlorofluorescein diacetate (DCFDA) (Abcam) for 1 hr at 37° C. with 5% CO2. A control of non-DCFDA stained cells was also included. The DCFDA-contained supplemented DMEM media was removed. The cells were re-suspended with 10 μM or 30 μM of respective tested compounds and positive control, tert-butyl hydroperoxide. In Leishmania, 1×10^7 promastigotes were also pre-loaded with 10 μM DCFDA at 27° C. for 1 hr. After removing the DCFDA-contained media, the promastigotes were seeded into black 96-well plate and incubated with 30 μM of respective compounds or positive control. The ROS level was determined at different periods of time including 2, 4, 6, 8, 20, 46 and 72 hr using microplate reader (excitation: 485 nm and emission: […]).
(§7) The ROS levels in both macrophage RAW264.7 and L. amazonensis promastigotes was measured by dichlorofluorescein diacetate (DCFDA) dye which is permeable to the cells. With oxidative stress, DCFDA would be oxidized to fluorescent DCF which is an indicator of intracellular ROS level. RAW cells or L. amazonensis promastigotes were pre-loaded with 10 μM of DCFDA for 1 hr, washed and exposed to 39, FM09, pentamidine and amphotericin B for different period of time (2, 4, 6, 8, 20, 46 and 72 hr). The fluorescence level was measured at the 520 nm using 485 nm as an excitation wavelength. 0.1% DMSO or 0.3% DMSO was used as a solvent control. The fluorescent value has been subtracted from non-DCFDA stained cells. The values were presented as mean±standard error of mean.

[10] = tested on: L. amazonensis LV78 promastigotes; experiment: Reactive oxygen species (ROS) level, DCFDA, promastigotes; assay type: cell-based; details: 30 μM
Procedure: as §6, §7

Row | IC50 [1] | IC50 [2] | IC50 [3] | IC50 [6] | IC50 [9] | Structure (SMILES) | IC50 [4] | IC50 [5] | IC50 [7] | IC50 [8] | other results
1 | 57.6 ± 37.3 µM | 59.8 ± 6.9 µM | – | – | – | NCCOCCOc1ccc(-c2cc(=O)c3ccccc3o2)cc1 [FM20, 2-(4-(2-(2-(amino)ethoxy)ethoxy)phenyl)-4H-chromen-4-one] | 34.9 ± 14.1 µM | 41.5 ± 15.6 µM | 0.7 ± 0.1 µM | 57.5 ± 9.2 µM | Selective index (a)/(c) [7]: 22.6
2 | > 100 µM | > 100 µM | 66.9 ± 9.7 µM | 7.1 ± 1.6 µM | – | O=C(COc1ccc(-c2cc(=O)c3ccccc3o2)cc1)N1CCCNCC1 [FM11, 2-(4-(2-(1,4-diazepan-1-yl)-2-oxoethoxy)phenyl)-4H-chromen-4-one] | > 100 µM | > 33 µM | > 10 µM | – | –
3 | > 100 µM | > 100 µM | > 50 µM | > 10 µM | – | O=C(COc1ccc(-c2cc(=O)c3ccccc3o2)cc1)N1CCN(C(=O)c2ccncc2)CC1 [FM16, 2-(4-(2-(4-isonicotinoylpiperazin-1-yl)-2-oxoethoxy)phenyl)-4H-chromen-4-one] | 87.1 ± 13 µM | > 100 µM | 5.7 µM | – | Selective index (a)/(c) [7]: >17.5; Selective index (a)/(c) ([7]; listed as 16): > 17.5
4 | 31.4 ± 2.4 µM | 78.5 ± 11.3 µM | 37.6 ± 2.8 µM | 6 ± 0.2 µM | – | O=C(COc1ccc(-c2cc(=O)c3ccccc3o2)cc1)N1CCNCC1 [FM10, 2-(4-(2-oxo-2-(piperazin-1-yl)ethoxy)phenyl)-4H-chromen-4-one] | 49.5 ± 8 µM | > 33 µM | > 10 µM | – | –
5 | 2.8 µM | – | 2.4 µM | – | – | O=c1cc(-c2ccc(OCCOCCNC(c3ccccn3)c3ccccn3)cc2)oc2ccccc12 [FM09p, 2-(4-(2-(2-((di(pyridin-2-yl)methyl)amino)ethoxy)ethoxy)phenyl)-4H-chromen-4-one] | – | 2.1 µM | – | 12.5 µM | –

Further lines, the molecule ahead of its results:

Row | Structure (SMILES) | IC50 [1] | IC50 [2] | IC50 [3] | IC50 [6] | IC50 [9] | IC50 [4] | IC50 [5] | IC50 [7] | IC50 [8] | other results
6 | O=C(COc1ccc(-c2cc(=O)c3ccccc3o2)cc1)N1CCN(Cc2ccncc2)CC1 [FM12, 2-(4-(2-oxo-2-(4-(pyridin-4-ylmethyl)piperazin-1-yl)ethoxy)phenyl)-4H-chromen-4-one] | > 100 µM | > 100 µM | 25.4 ± 3.6 µM | > 10 µM | – | 15 ± 2.2 µM | > 100 µM | > 10 µM | – | –
7 | O=c1cc(-c2ccc(OCCC3CCN(Cc4ccccn4)CC3)cc2)oc2ccccc12 [FM05a, 2-(4-(2-(1-(pyridin-2-ylmethyl)piperidin-4-yl)ethoxy)phenyl)-4H-chromen-4-one] | 2.97 ± 0.91 µM | – | 7.43 ± 2.15 µM | 3.57 ± 1.73 µM | 5.2 ± 1.68 µM | – | 58.9 ± 23.3 µM | – | 17.6 µM | –
8 | O=c1cc(-c2ccc(OCCN3CCN(Cc4ccccn4)CC3)cc2)oc2ccccc12 [FM01a, 2-(4-(2-(4-(pyridin-2-ylmethyl)piperazin-1-yl)ethoxy)phenyl)-4H-chromen-4-one] | 11.7 ± 1.34 µM | – | 15.4 ± 5.98 µM | 8.74 ± 0.77 µM | 10 µM | – | 60.3 ± 2.3 µM | – | – | –
9 | NC[C@@H]1O[C@H](O[C@H]2[C@@H](O)[C@H](O[C@@H]3[C@@H](O)[C@H](N)C[C@H](N)[C@H]3O[C@H]3O[C@H](CO)[C@@H](O)[C@H](O)[C@H]3N)O[C@@H]2CO)[C@H](N)[C@@H](O)[C@@H]1O [Paromomycin, reference compound] | – | – | – | – | – | 24.5 ± 2.4 µM | – | 41 ± 1.1 µM | > 100 µM | –
10 | O=c1cc(-c2ccc(OCCOCCN(Cc3ncccn3)Cc3ncccn3)cc2)oc2ccccc12 [FM09d, 2-(4-(2-(2-(bis(pyrimidin-2-ylmethyl)amino)ethoxy)ethoxy)phenyl)-4H-chromen-4-one] | 35.3 ± 4.2 µM | – | 42.4 ± 7.65 µM | > 10 µM | > 10 µM | – | > 100 µM | – | > 100 µM | –
11 | O=c1cc(-c2ccc(OCCOCCNCc3ccccn3)cc2)oc2ccccc12 [FM09m, 2-(4-(2-(2-((pyridin-2-ylmethyl)amino)ethoxy)ethoxy)phenyl)-4H-chromen-4-one] | – | – | 25.3 ± 3.94 µM | 4.46 ± 0.68 µM | 9.3 ± 0.56 µM | – | 23.9 ± 1.15 µM | – | 28.4 µM | –
12 | O=c1cc(-c2ccc(OCCOCCN(Cc3ncccc3Cl)Cc3ncccc3Cl)cc2)oc2ccccc12 [FM09g, 2-(4-(2-(2-(bis((3-chloropyridin-2-yl)methyl)amino)ethoxy)ethoxy)phenyl)-4H-chromen-4-one] | 28.1 ± 5.24 µM | – | 18.1 ± 4.88 µM | > 10 µM | > 10 µM | – | 33.7 ± 10.6 µM | – | – | –
13 | CC(C)(C)OO [tert-butyl hydroperoxide] | – | – | – | – | – | – | – | – | – | RAW264.7 ROS Level, Relative fold (RF) (RAW264.7 cells; 10 μM, 2 hr): 2.3 fold; RAW264.7 ROS Level, Relative fold (RF) (RAW264.7 cells; 10 μM, 4 hr): 2.3 fold; RAW264.7 ROS Level, Relative fold (RF) (RAW264.7 cells; 10 μM, 6 hr): 2.2 fold; RAW264.7 ROS Level, Relative fold (RF) (RAW264.7 cells; 10 μM, 8 hr): 1.9 fold; RAW264.7 ROS Level, Relative fold (RF) (RAW264.7 cells; 10 μM, 20 hr): 1.8 fold; RAW264.7 ROS Level, Relative fold (RF) (RAW264.7 cells; 30 μM, 2 hr): 2.9 fold; RAW264.7 ROS Level, Relative fold (RF) (RAW264.7 cells; 30 μM, 4 hr): 2.9 fold; RAW264.7 ROS Level, Relative fold (RF) (RAW264.7 cells; 30 μM, 6 hr): 2.6 fold; RAW264.7 ROS Level, Relative fold (RF) (RAW264.7 cells; 30 μM, 20 hr): 1.9 fold; RAW264.7 ROS Level, Relative fold (RF) (RAW264.7 cells; 30 μM, 46 hr): 1.6 fold; L. amazon LV78 promastigote ROS Level, Relative fold (RF) ([10]; 2 hr): 1.4 fold; L. amazon LV78 promastigote ROS Level, Relative fold (RF) ([10]; 4 hr): 1.3 fold; L. amazon LV78 promastigote ROS Level, Relative fold (RF) ([10]; 6 hr): 1.4 fold; L. amazon LV78 promastigote ROS Level, Relative fold (RF) ([10]; 20 hr): 1.7 fold; L. amazon LV78 promastigote ROS Level, Relative fold (RF) ([10]; 46 hr): 1.5 fold; L. amazon LV78 promastigote ROS Level, Relative fold (RF) ([10]; 72 hr): 1.9 fold
